Consider six substances from paper PMC12636028, “Rate-Tunable, Metal-Mediated Amide Bond Cleavage for the Controlled Release of Pharmaceuticals” (Journal of the American Chemical Society, 2025).

Read-outs that look alike come from different tables or passages of the source.

For data set [1] the following is noted: for half-life of model tripeptide: buffer, pH 7.4; for autolytic release of [67Ga]Ga(NOTA): 67Ga-radiolabeled.
Description: 4.1 Radiolabeling with 68Ga and Cleavage Assay in HEPES buffer
68Ga-chloride was obtained from the University of Wisconsin Radiopharmaceutical Production Facility, at
an average specific activity of 20 mCi/mL. For radio-labeling of model tripeptides and Ahx-KuE peptide
conjugates, a 35 μL aliquot containing 0.7 mCi of 68GaCl3 was added to the ligand (10 nmol, 265 µL) in
0.067 M of sodium acetate (NaOAc) buffer pH 4.5. Radiolabeling was completed after 15 minutes at
room temperature. The pH of the solution was then adjusted to 7.4 by pH 7.4 1 M HEPES buffer.
radiolabeled conjugates were further characterized with radio-HPLC; if the radiochemical yield was
<98%, a chromatographic purification of the crude radiolabeling mixture was performed. The cleavage of
the radiolabeled conjugates was monitored via radio-HPLC at 80 °C and pH 7.4.
67Ga-citrate was purchased from Jubilant Radiopharma at an average specific activity of 140.0 MBq/mL.
The 67Ga-citrate solution was first converted to 67GaCl using an established solid phase extraction
protocol. The resulting converted 67GaCl3 fraction with the specific activity of 962 MBq/mL was used for
radiolabeling. For radio-labeling of model tripeptides and Ahx-KuE peptide conjugates, a 25 μL aliquot
containing 0.45 mCi of 67GaCl3 was added to the ligand (10 nmol, 110 µL) in 0.15 M of sodium acetate
(NaOAc) buffer pH 4.5. Radiolabeling was completed after 10 minutes at room temperature. The pH of
the solution was then adjusted to 7.4 by adding pH 7.4 1 M HEPES buffer (final concentration: 0.25 M).
The radiolabeled conjugates were further characterized with radio-HPLC; if the radiochemical yield was
the radiolabeled conjugates was monitored via radio-HPLC at 37 °C and 80 °C at pH 7.4.
For radio-labeling of model tripeptides and Ahx-KuE peptide conjugates, a 25 μL aliquot containing 0.3
mCi of 67GaCl3 was added to the ligand (10 nmol, 110 µL) in 0.15 M of sodium acetate (NaOAc) buffer
pH 4.5. Radiolabeling was completed after 10 minutes at room temperature. The radiolabeled complexes
were further characterized by radio-HPLC. The pH of the solution was then adjusted to 7.4 by adding pH
7.4 1M HEPES buffer. Into the buffered mixture was added equal volume of mouse plasma (buffered
radiolabeled complex : mouse plasma 1:1). The cleavage of the radiolabeled conjugates was monitored
via radio-HPLC at 37 °C. At each time point, an aliquot of 20 – 40 µL sample was removed from the
tube. Plasma protein was precipitated by adding 20 – 40 µL of cold acetonitrile. After centrifugation at
4000 rpm for 10 minutes, the supernatant was collected and diluted in 40 – 70 µL H2O for radio-HPLC
The nature of data set [2]: cleavage assay of cold (natural metal) model tripeptide complexes, monitored by HPLC. In kind it is physicochemical. Conditions: for kobs: Ga complex, pseudo first-order. The text has this: Following our previous work focused on N, O acyl shift compatible chelate conjugates, we originally sought to accelerate amide bond cleavage by N-methylation, to enhance the peptide’s leaving group character. We initiated the study by synthesis of a model tripeptide sequence which is capped at the N-terminus by the aza-macrocyclic 1,4,7-triazacyclononane-1,4,7-triacetic acid (NOTA) chelator previously identified as compatible with MMAAC. To this end, tripeptides with the sequence NO2A-X-G-W-NH2 (where X represents the variable complex adjacent amino acid) were constructed. Tryptophan (W) was incorporated as a spectroscopic handle for HPLC monitoring due to its characteristic absorbance at 280 nm, while glycine (G) was included as a short spacer amino acid to minimize the steric influence of W on the metal chelate. Subsequently, chelation with Ga^3+ yielded the corresponding model tripeptide metal complex, [Ga(NO2A)]^+-X-G-W-NH2. The Ga^3+ ion was selected as the gold-standard metal ion since it effectively triggered bond cleavage in the Ser model tripeptide in prior studies, but also formed a thermodynamically and kinetically inert, in vivo compatible metal complex. Following successful complexation and purification, the pH and reaction temperature of the metal complex solution were adjusted to pH 7.4 and 80 °C to initiate cleavage at a readily observable rate (Figure A). Reaction progress was monitored and quantified using high-performance liquid chromatography and mass spectrometry (HPLC-MS, Figure B,C). In the absence of a metal ion, all model tripeptides remained intact at all conditions and temperatures tested (Figures S113–S121). […] In the liquid chromatogram, a second peak with a longer retention time, with the same mass as the reactant, was observed. Previously, we hypothesized that this peak correlated to an intramolecular rearrangement prior to the subsequent amide bond cleavage as part of the N, O-acyl shift reaction.
3 Complex synthesis and characterization
3.1 General Complexation Protocol and Cleavage Assay Procedure
A 5 mg aliquot of the compound, 10-25, was dissolved in 500 μL of room-temperature distilled water.
Two equivalents of the natGa3+salt were added to the solution, which was left to react for 1 hour under room temperature. Full complexation was confirmed by LCMS. The complex was then purified via Sep-Pak C18 short cartridge. The concentration was determined by ICP-OES. The complexes were further characterized via HPLC and HR-ESI-MS.
Cleavage of the cold model tripeptide complexes (0.75 mM, determined by ICP-OES) was observed under 80 °C and pH 7.4. Aqueous buffer solutions were prepared using 10 mM NaOAc (pH 4.5), 10 mM […]
The complex was formed in pH 4.5 10 mM NaOAc buffer under room temperature. An aliquot of the complex was placed in an aqueous solution of the desired pH and incubated for 24 hours at 80 °C. The reaction was monitored via analytical HPLC (Method A). […]
natGallium 2,2'-(7-(2-(benzylamino)-2-oxoethyl)-1,4,7-triazonane-1,4-diyl)diacetic acid, Ga(26). […]
The concentration of Ga(NO3)3 was determined by ICP-OES. The pH of the solution was adjusted to pH = 5 by adding 4 equivalents of 1 M KOH solution. […]
natGallium 2,2'-(7-(2-(benzyl(methyl)amino)-2-oxoethyl)-1,4,7-triazonane-1,4-diyl)diacetic acid, [Ga(27)]ClO4. A 15 mg aliquot of compound 27 was dissolved in 500 μL of room temperature distilled […]
water. […]

Data set [3] is classed as physicochemical. The following applies: buffer, pH 7.4. The text has this: (§1) The cleavage of the radiolabeled conjugates was monitored
(§2) tube. […] After centrifugation at […]

The format of data set [4] is in vitro ADME. Conditions: mouse, plasma.
From the text: as §1, §2

Data set [5] is described as follows: cleavage assays in H2O and D2O for kinetic isotopic effect. In kind it is physicochemical. The following applies: Ga complex 0.75 mM, pH 7.4 HEPES, 80 °C. From the text:
Therefore, we conducted additional Kinetic isotopic effect (KIE) measurements for Met (15) and ^NMeMet (18) conjugates, which were chosen to avoid alternative reaction mechanisms. Our experiments determined KIE values (1.46 for Met, 2.81 for ^NMeMet) that imply a secondary KIE, where the proton transfer is not rate-limiting (Figures S262–S265). […] Reaction rates in phosphate buffered saline (PBS) were accelerated, motivating investigation of biologically relevant systems.
5.3 Cleavage assays in H2O and D2O for kinetic isotopic effect measurement Cold cleavage assays of [Ga(15)]+ were conducted in H2O and D2O to investigate the kinetic isotopic effects. In an Eppendorf tube, Ga complexes (0.75 mM) were initially prepared in H2O according to general complexation protocol Section 3.1. The solvent was lyophilized, and the complexes were redissolved in D2O. To minimize residual H2O, the D2O was lyophilized and redissolved three times. The Ga complexes were then redissolved in D2O to a final concentration of 0.75 mM. The solution was buffered to pH 7.4 by adding pH 7.4 HEPES buffer. Cleavage reactions were performed at 80 °C and monitored by analytical HPLC.
Figure S262. Schematic description of preparation and direct complexation procedure of [natGa(15)]+.
Analytical HPLC chromatograms showing autolytic release of the product, natGa-NOTA, in H2O. The kinetics data was fit using Yt = -kt+Y0 in Excel, where Yt represents the ln([concentration of intact species]) in mM, k represents the pseudo first-order reaction rate in hour-1, t represents the incubation time in hour, and Y0 presents the ln([initial concentration of intact species]) in mM.
(1 picture or pasted object on this page, not shown here)
Cold cleavage assays of [Ga(19)]+ were conducted in H2O and D2O to investigate the kinetic isotopic […]
Figure S264. Schematic description of preparation and direct complexation procedure of [natGa(19)]+.

On to “68Gallium 2,2'-(7-(2-(((R)-1-((2-(((S)-1-amino-3-(1H-indol-3-yl)-1-oxopropan-2-yl)amino)-2-oxoethyl)amino)-3-hydroxy-1-oxopropan-2-yl)(methyl)amino)-2-oxoethyl)-1,4,7-triazonane-1,4-diyl)diacetate [[Ga(16)]+]”, for which the “half-life of model tripeptide” value in data set [1] is recorded as 3.65 h; in data set [3] it was 0.22 h; in data set [4], 6.12 h. Moreover, the “cleaved after 1 h” value in data set [2] (natGa complex, pH 7.4, 80 °C, after 1 h) was 100%.

“68Gallium (R)-2,2'-(7-(2-((2-((2-((1-amino-3-(1H-indol-3-yl)-1-oxopropan-2-yl)amino)-2-oxoethyl)amino)-2-oxoethyl)amino)-2-oxoethyl)-1,4,7-triazonane-1,4-diyl)diacetate [[Ga(10)]+]”: the “autolytic release of [67Ga]Ga(NOTA)” value was “no significant autolytic release” in data set [1] (37 °C and pH 7.4); “no significant autolytic release” in data set [1] (80 °C and pH 7.4). The “half-life of model tripeptide” value in data set [1] is “not observed”; in data set [3] it was “not obser ved”; in data set [4], “not observed”. Further, the “hydrolysis of the Ga complex” value is on record as “hydrolyzed” in data set [2] (pH 4.5, 80 °C) and “inert” in data set [2] (pH > 5, 80 °C).

On to “68Gallium 2,2'-(7-(2-(((R)-1-((2-(((S)-1-amino-3-(1H-indol-3-yl)-1-oxopropan-2-yl)amino)-2-oxoethyl)amino)-4-(methylthio)-1-oxobutan-2-yl)(methyl)amino)-2-oxoethyl)-1,4,7-triazonane-1,4-diyl)diacetate [[Ga(18)]+]”, for which, in data set [5] (D2O), the “pseudo first-order reaction rate in D2O” value amounted to 0.16 h⁻¹. Besides, in data set [5] (H2O), the “pseudo first-order reaction rate in H2O” value came to 0.45 h⁻¹. The “KIE (kinetic isotopic effect)” value in data set [5] (H2O vs D2O) is 2.81. Also, the “half-life of model tripeptide” value is on record as 28.1 h in data set [1], 0.92 h in data set [3] and 151 h in data set [4]. Also, the krel (relative rate enhancement versus 25 mM pH 7.4 HEPES) stood at 1 in data set [2] (25 mM HEPES, pH 7.4, 80 °C); 4.4 in data set [2] (25 mM PBS, pH 7.4, 80 °C); 1.13 in data set [2] (25 mM PIPES, pH 7.4, 80 °C); 2.44 in data set [2] (250 mM HEPES, pH 7.4, 80 °C). In addition, the kobs worked out at 0.45 h⁻¹ in data set [2] (25 mM HEPES, pH 7.4, 80 °C); 1.98 h⁻¹ in data set [2] (25 mM PBS, pH 7.4, 80 °C); 0.51 h⁻¹ in data set [2] (25 mM PIPES, pH 7.4, 80 °C); 1.10 h⁻¹ in data set [2] (250 mM HEPES, pH 7.4, 80 °C).

As to “68Gallium 2,2'-(7-(2-(((R)-1-((2-(((S)-1-amino-3-(1H-indol-3-yl)-1-oxopropan-2-yl)amino)-2-oxoethyl)amino)-1-oxopropan-2-yl)amino)-2-oxoethyl)-1,4,7-triazonane-1,4-diyl)diacetate [[Ga(12)]+]”, the “cleavage after 6 h” value in data set [2] (natGa complex, pH 7.4, 80 °C) is 20%.

For “68Gallium 2,2'-(7-(2-(((R)-1-((2-(((S)-1-amino-3-(1H-indol-3-yl)-1-oxopropan-2-yl)amino)-2-oxoethyl)amino)-3-hydroxy-1-oxopropan-2-yl)amino)-2-oxoethyl)-1,4,7-triazonane-1,4-diyl)diacetate [[Ga(13)]+]”, the entries for the “half-life of model tripeptide” value in data set [1], in data set [3] and in data set [4] were 365 h, 5.20 h and 182 h, respectively.

For “68Gallium 2,2'-(7-(2-(((2R,3S)-1-((2-(((S)-1-amino-3-(1H-indol-3-yl)-1-oxopropan-2-yl)amino)-2-oxoethyl)amino)-3-hydroxy-1-oxobutan-2-yl)amino)-2-oxoethyl)-1,4,7-triazonane-1,4-diyl)diacetate [[Ga(14)]+]”, in data set [2] (natGa complex, pH 7.4, 80 °C), the “cleavage after 6 h” value came to 50%.
